Article PMC7824897, “Selection of the First ^99mTc-Labelled Somatostatin Receptor Subtype 2 Antagonist for Clinical Translation—Preclinical Assessment of Two Optimized Candidates” (Pharmaceuticals, 2020)
Where a SMILES comes first, the peptide text is derived from it. Bridges are numbered along the chain shown (N, C = ends). [ ]: non-standard residue; d: D form. The star is where a group is joined. N4 = 6-carboxy-1,4,8,11-tetraazaundecane chelator, NCCNCC(CNCCN)C(=O)*; dPhe(4-NHCONH2) = NC(=O)Nc1ccc(C[C@@H](N)C(=O)O)cc1; Phe(4-Cl) = N[C@@H](Cc1ccc(Cl)cc1)C(=O)O; X1 = NCCNCC(CNCCN)C(=O)*

Key:
[1] = format: physicochemical; details: pH 7.4
Method: Determination of the distribution coefficient (log D) was performed by the shake-flask method in 1:1 mixture of octanol/Phosphate buffered saline (PBS). Then, 50 µL of [^99mTc]Tc-TECANT-1 or [^99mTc]Tc-TECANT-2 solution was diluted up to 500 µL with PBS (pH 7.4; 8 mM phosphate). Next, 20 µL of this solution was added to six eppendorf tubes, each containing 500 µL octanol and 480 µL PBS. The samples were vortexed for 15 min at 1400 rpm followed by centrifugation for 2 min at 4500 rpm. Aliquots of 100 µL from each phase were taken and measured in a γ-counter. The log D was calculated as the average of the logarithmic values (n = 3, six technical replicates) of the ratio between the radioactivity in the octanol and the PBS phase.

[2] = parameters: species or system human
Text: To account for various possible locations of the tumour, we used two S-values. One was the value for the liver and is representative for the liver lesions. Other was the “average abdominal S-value”, which was the average S-value for the following organs: stomach, liver, gallbladder, spleen, pancreas, small intestine, kidneys, large intestine, and adrenal glands. Estimated dose to various organs, average total body dose and effective dose are summarized in Table 3 for both radiotracers and two typical tumour locations.
Dosimetric calculations were based on the biodistribution of [^99mTc]Tc-TECANT-1 and [^99mTc]Tc-TECANT-2 (Table 3). […] Percent of injected activity per organ in a human model was evaluated according to the animal data extrapolation model:(2) (%IA/organ)human=[(%IA/g)mouse×Mmouse(g)]×(m(g)/M(kg))human
Here m is the organ mass and M is the total body weight of mouse or human. Average total weight of the mouse was measured, while human phantom has the total weight of 73 kg. The %IA/g and %IA/organ is the percentage of the injected activity concentration (i.e., per gram of tissue) and per organ, respectively. For the tumour, we assumed that the percent of injected activity uptake into the tumour is the same for mouse and human.
Subsequently, percentage of the injected activity per organ was folded with the decay curve of ^99mTc and interpolated with the exponential function. The interpolation function was used to estimate initial %ID/organ and the time-integrated activity concentration (TIAC). Absorbed dose per injected activity for various organs was calculated with the TIAC factors and S-values for a standard person from the OpenDose project. Effective dose was evaluated according to the ICRP 103 recommendations.
We also assumed that the remaining activity from the organs and tumour ends up in the bladder.

[3] = target: T1, HEK-SST2 cells (human SST2 receptor) (Homo sapiens, UniProt P30874); assay: Dissociation of cell-surface bound radiotracer with or without competitor; format: cell-based
T1 construct: expressed in transfected cells; host or cells: HEK293 (HEK-SST2), provided by Prof; Stefan Schulz, Jena University Hospital
T1 sequence (P30874 whole entry): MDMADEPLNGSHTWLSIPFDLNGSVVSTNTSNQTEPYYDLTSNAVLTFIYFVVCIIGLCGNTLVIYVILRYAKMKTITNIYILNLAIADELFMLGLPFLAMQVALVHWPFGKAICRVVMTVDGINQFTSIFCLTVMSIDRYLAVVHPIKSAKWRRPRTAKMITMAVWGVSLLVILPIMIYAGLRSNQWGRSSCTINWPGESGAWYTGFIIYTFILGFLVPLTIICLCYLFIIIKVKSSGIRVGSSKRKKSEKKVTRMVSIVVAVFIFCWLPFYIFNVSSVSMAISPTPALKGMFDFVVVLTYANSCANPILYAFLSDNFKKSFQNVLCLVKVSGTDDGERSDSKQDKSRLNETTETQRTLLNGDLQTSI

[4] = in vivo; details: female, mouse, 20 pmol, total radioactivity
[5] = target: T1, HEK-SST2 cells (human SST2 receptor); assay: Internalization and cell-surface binding in HEK-SST2 cells; format: cell-based
[6] = target: T2, T7-epitope tagged human SST2 receptor (somatostatin receptor subtype 2) (human, UniProt P30874 1-369); assay: radioligand binding; competition on 5 x 10^5 HEK-SST2 cells in 96-well filter plates; radioligand [^177Lu]Lu-DOTA-TATE (1 nM); competitor 0.004 to 4000 nM; 2 h at 4 °C; TRIS buffer; apparent IC50; details: one partner purified
T2 construct: somatostatin receptor subtype 2 (SST2), human, expressed in HEK293 cells; also called HEK-SST2 (the cells that express it); source: HEK293 cell line expressing it (HEK-SST2), provided by Professor Stefan Schulz; on intact cells
T2 sequence (P30874 whole entry): as above

[7] = target: T2, T7-epitope tagged human SST2 receptor …; assay: radioligand binding; dissociation without competitor: radiotracer 0.25 nM bound to HEK-SST2 cells for 2 h at 4 °C, washed, then medium at 37 °C replaced at 10, 20, 30, 60, 120 and 240 min; cell-associated radiotracer left; details: one partner purified
[8] = target: T2, T7-epitope tagged human SST2 receptor …; assay: radioligand binding; dissociation with competitor: as without, but medium with 2.5 µM of the respective unlabelled TECANT analogue; details: one partner purified
[9] = athymic nude-Foxn1^nu/Foxn1^+, Biodistribution Heart
[10] = athymic nude-Foxn1^nu/Foxn1^+, Biodistribution Liver
[11] = athymic nude-Foxn1^nu/Foxn1^+, Biodistribution Lung
[12] = athymic nude-Foxn1^nu/Foxn1^+, Biodistribution Pancreas
[13] = athymic nude-Foxn1^nu/Foxn1^+, Biodistribution Spleen
[14] = athymic nude-Foxn1nu/Foxn1+, Biodistribution Adrenals
[15] = athymic nude-Foxn1nu/Foxn1+, Biodistribution Blood
[16] = athymic nude-Foxn1nu/Foxn1+, Biodistribution Bone
[17] = athymic nude-Foxn1nu/Foxn1+, Biodistribution HEK-SST2 (+) tumour uptake
[18] = athymic nude-Foxn1nu/Foxn1+, Biodistribution Intestine
[19] = athymic nude-Foxn1nu/Foxn1+, Biodistribution Kidneys
[20] = athymic nude-Foxn1nu/Foxn1+, Biodistribution Muscle
[21] = athymic nude-Foxn1nu/Foxn1+, Biodistribution Pituitary
[22] = athymic nude-Foxn1nu/Foxn1+, Biodistribution Stomach

C[C@@H](O)[C@@H]1NC(=O)[C@H](CCCCN)NC(=O)[C@@H](Cc2ccc(NC(N)=O)cc2)NC(=O)[C@H](Cc2ccc(O)cc2)NC(=O)[C@H](NC(=O)[C@H](Cc2ccc(Cl)cc2)NC(=O)C(CNCCN)CNCCN)CSSC[C@@H](C(=O)N[C@H](Cc2ccc(O)cc2)C(N)=O)NC1=O [[^99mTc]Tc-TECANT-1, metal not drawn] (X1-[Phe(4-Cl)][dC]Y[dPhe(4-NHCONH2)]KTC[dY]-NH2; disulfide 2-7)
logD [1]: -2.53 ± 0.19
Average total body dose [2]: 3.2 μGy/MBq
Dose Bone [2]: 3.9 μGy/MBq
Dose Muscle [2]: 2.4 μGy/MBq
Dose Red marrow [2]: 3.3 μGy/MBq
Dose Small intestine wall [2]: 1.9 μGy/MBq
biological half-life of clearance of remaining activity (rest of the body) to the bladder [2]: 9.7 h
effective dose [2]: 4.9 mSv
fraction dissociated ([3]; HEK-SST2 cells, at 2 h/37 °C): < 30%
estimated dissociation half-life ([3]; absence of competitor): 98 min
total binding remaining (dissociation assay) ([3]; after 4 h, 37 °C, absence of competitor): 58.8 ± 3.3%
estimated dissociation half-life ([3]; presence of competitor): 19 min
bound fraction still remaining in the cells ([3]; presence of excess of the competitor, 37 °C): 7.9 ± 2.2%
tissue uptake at 1 h [4, 9]: 0.71 ± 0.1 %ID/g
tissue uptake at 4 h [4, 9]: 0.24 ± 0.06 %ID/g
tissue uptake at 24 h [4, 9]: 0.05 ± 0.02 %ID/g
tissue uptake at 1 h [4, 10]: 3.13 ± 0.43 %ID/g
tissue uptake at 4 h [4, 10]: 1.9 ± 0.41 %ID/g
tissue uptake at 24 h [4, 10]: 0.6 ± 0.1 %ID/g
tissue uptake at 1 h [4, 11]: 8.94 ± 3.92 %ID/g
tissue uptake at 4 h [4, 11]: 3.07 ± 1.16 %ID/g
tissue uptake at 24 h [4, 11]: 0.26 ± 0.04 %ID/g
tissue uptake at 1 h [4, 12]: 47.8 ± 7.86 %ID/g
tissue uptake at 4 h [4, 12]: 16.9 ± 3.97 %ID/g
tissue uptake at 24 h [4, 12]: 1.08 ± 0.19 %ID/g
tissue uptake at 1 h [4, 13]: 1.3 ± 0.41 %ID/g
tissue uptake at 4 h [4, 13]: 0.57 ± 0.11 %ID/g
tissue uptake at 24 h [4, 13]: 0.2 ± 0.01 %ID/g
tissue uptake at 1 h [4, 14]: 7.11 ± 3.04 %ID/g
tissue uptake at 4 h [4, 14]: 4.36 ± 1.88 %ID/g
tissue uptake at 24 h [4, 14]: 0.85 ± 0.18 %ID/g
tissue uptake at 1 h [4, 15]: 0.79 ± 0.09 %ID/g
tissue uptake at 4 h [4, 15]: 0.23 ± 0.05 %ID/g
tissue uptake at 24 h [4, 15]: 0.03 %ID/g
tissue uptake at 1 h [4, 16]: 1.41 ± 0.77 %ID/g
tissue uptake at 4 h [4, 16]: 0.59 ± 0.23 %ID/g
tissue uptake at 24 h [4, 16]: 0.35 ± 0.07 %ID/g
tissue uptake at 1 h [4, 17]: 21 ± 3.92 %ID/g
tissue uptake at 4 h [4, 17]: 26 ± 1.33 %ID/g
tissue uptake at 24 h [4, 17]: 19 ± 2 %ID/g
tissue uptake at 4 h ([4]; athymic nude-Foxn1nu/Foxn1+, Biodistribution HEK-SST2 (−) tumour uptake): 0.88 ± 0.37 %ID/g
tissue uptake at 1 h [4, 18]: 6.48 ± 4.37 %ID/g
tissue uptake at 4 h [4, 18]: 2.4 ± 1.9 %ID/g
tissue uptake at 24 h [4, 18]: 0.31 ± 0.08 %ID/g
tissue uptake at 1 h [4, 19]: 16.3 ± 1.83 %ID/g
tissue uptake at 4 h [4, 19]: 12.6 ± 2.54 %ID/g
tissue uptake at 24 h [4, 19]: 2.42 ± 0.2 %ID/g
tissue uptake at 1 h [4, 20]: 0.23 ± 0.05 %ID/g
tissue uptake at 4 h [4, 20]: 0.12 ± 0.06 %ID/g
tissue uptake at 24 h [4, 20]: 0.05 ± 0.01 %ID/g
tissue uptake at 1 h [4, 21]: 9.71 ± 2.81 %ID/g
tissue uptake at 4 h [4, 21]: 6.66 ± 3.67 %ID/g
tissue uptake at 24 h [4, 21]: 4.35 ± 2.87 %ID/g
tissue uptake at 1 h [4, 22]: 36.5 ± 7.89 %ID/g
tissue uptake at 4 h [4, 22]: 13.6 ± 3.86 %ID/g
tissue uptake at 24 h [4, 22]: 1.42 ± 0.27 %ID/g
internalization (internalized fraction) ([5]; 30 min, 37 °C): 4.1 ± 0.1%
internalization (internalized fraction) ([5]; 4 h, 37 °C): 13.4 ± 1.7%
cell surface binding ([5]; 4 h, 37 °C, % of total radioactivity added): 50.7 ± 1.7%
cellular uptake ([5]; at 2 h/37 °C): > 50%

B1: TECANT-1 (N4-p-Cl-Phe-cyclo(D-Cys-Tyr-D-Aph(Cbm)-Lys-Thr-Cys)-D-Tyr-NH2) (peptide)
peptide: N4-[Phe(4-Cl)][dC]Y[dPhe(4-NHCONH2)]KTC[dY]-NH2
modifications: disulfide 2-7
SMILES: C[C@@H](O)[C@@H]1NC(=O)[C@H](CCCCN)NC(=O)[C@@H](Cc2ccc(NC(N)=O)cc2)NC(=O)[C@H](Cc2ccc(O)cc2)NC(=O)[C@H](NC(=O)[C@H](Cc2ccc(Cl)cc2)NC(=O)C(CNCCN)CNCCN)CSSC[C@@H](C(=O)N[C@H](Cc2ccc(O)cc2)C(N)=O)NC1=O
notes: printed in three-letter code: N4-p-Cl-Phe-cyclo(D-Cys-Tyr-D-Aph(Cbm)-Lys-Thr-Cys)-D-Tyr-NH2; F at 1 stands for p-Cl-Phe and F at 4 for D-Aph(Cbm), both phenylalanine derivatives; SST2 antagonist based on LM3; non-metallated peptide conjugate; also called N4-LM3; source: synthetic peptide, custom made by piChem
IC50 [6]: 4.14 ± 0.83 nM

B2: [^99mTc]Tc-TECANT-2 (peptide)
peptide: N4-[Phe(4-Cl)][dC]Y[dW]KTC[dY]-NH2
modifications: disulfide 2-7; also: N4 chelator holds 99mTc (dioxo-99mTc(V) complex)
notes: as TECANT-2: N4-p-Cl-Phe-cyclo(D-Cys-Tyr-D-Trp-Lys-Thr-Cys)-D-Tyr-NH2; F at 1 stands for p-Cl-Phe; also called ^99mTc-N4-SS01; source: synthetic peptide (piChem), labelled with ^99mTc, used without further purification
estimated half-life of dissociation [7]: 40.3 min
estimated half-life of dissociation [8]: 7.5 min

B3: ^natRe-TECANT-2 (peptide)
peptide: N4-[Phe(4-Cl)][dC]Y[dW]KTC[dY]-NH2
modifications: disulfide 2-7; also: N4 chelator holds natural rhenium
notes: as TECANT-2: N4-p-Cl-Phe-cyclo(D-Cys-Tyr-D-Trp-Lys-Thr-Cys)-D-Tyr-NH2; F at 1 stands for p-Cl-Phe; surrogate of the Tc complex; also called [^natRe]Re-TECANT-2; Re-complex of TECANT-2; source: synthetic peptide (piChem), Re complex made with tetrabutylammonium-tetrachloro-oxo-rhenate (V)
IC50 [6]: 4.47 ± 0.89 nM

B4: [^99mTc]Tc-TECANT-1 (peptide)
peptide: N4-[Phe(4-Cl)][dC]Y[dPhe(4-NHCONH2)]KTC[dY]-NH2
modifications: disulfide 2-7; also: N4 chelator holds 99mTc (dioxo-99mTc(V) complex)
notes: as TECANT-1: N4-p-Cl-Phe-cyclo(D-Cys-Tyr-D-Aph(Cbm)-Lys-Thr-Cys)-D-Tyr-NH2; F at 1 stands for p-Cl-Phe and F at 4 for D-Aph(Cbm); source: synthetic peptide (piChem), labelled with ^99mTc, used without further purification
estimated half-life of dissociation [7]: 98 min
estimated half-life of dissociation [8]: 19 min

B5: ^natRe-TECANT-1 (peptide)
peptide: N4-[Phe(4-Cl)][dC]Y[dPhe(4-NHCONH2)]KTC[dY]-NH2
modifications: disulfide 2-7; also: N4 chelator holds natural rhenium
notes: as TECANT-1: N4-p-Cl-Phe-cyclo(D-Cys-Tyr-D-Aph(Cbm)-Lys-Thr-Cys)-D-Tyr-NH2; F at 1 stands for p-Cl-Phe and F at 4 for D-Aph(Cbm); surrogate of the Tc complex; also called [^natRe]Re-TECANT-1; Re-complex of TECANT-1; source: synthetic peptide (piChem), Re complex made with tetrabutylammonium-tetrachloro-oxo-rhenate (V)
IC50 [6]: 5.01 ± 0.93 nM
